Results published in ChEMBL document CHEMBL3046064, “Expression of OPN in rat kidney with different doses of vitamin K3 injection” (2007).

Columns and labels:
Rattus norvegicus [1] = species: Rattus norvegicus; assay: Renoprotective activity in 1% ethylene glycol-treated Rattus norvegicus Sprague-Dawley (rat) kidney assessed as decrease in oxalate excretion in urine at 0.4 mg/day after 14 days (reference value: 4.07 +/- 0.05 uM); format: functional
Rattus norvegicus [2] = species: Rattus norvegicus; assay: Renoprotective activity in Rattus norvegicus Sprague-Dawley (rat) kidney assessed as decrease in oxalate excretion in urine at 4 mg/day after 14 days in presence of water (reference value: 1.11 +/- 0.06 uM); format: functional
Rattus norvegicus [3] = species: Rattus norvegicus; assay: Renoprotective activity in 1% ethylene glycol-treated Rattus norvegicus Sprague-Dawley (rat) kidney assessed as decrease in oxalate excretion in urine at 2 mg/day after 14 days (reference value: 4.07 +/- 0.05 uM); format: functional
Rattus norvegicus [4] = assay: Downregulation of OPN expression in 1% ethylene glycol-treated Rattus norvegicus Sprague-Dawley (rat) kidney at 0.4 mg/day, po after 14 days by ELISA (reference value: 75 +/- 13.5 %); format: functional
Rattus norvegicus [5] = species: Rattus norvegicus; assay: Renoprotective activity in 1% ethylene glycol-treated Rattus norvegicus Sprague-Dawley (rat) kidney assessed as decrease in oxalate excretion in urine at 3 mg/day after 14 days (reference value: 4.07 +/- 0.05 uM); format: functional
Rattus norvegicus [6] = assay: Downregulation of OPN expression in 1% ethylene glycol-treated po dosed Rattus norvegicus Sprague-Dawley (rat) kidney at 0.4 mg/day, po after 14 days by ELISA; format: functional, organism-based
Rattus norvegicus [7] = assay: Downregulation of OPN expression in Rattus norvegicus Sprague-Dawley (rat) kidney at 0.4 mg/day, po after 14 days by ELISA in presence of water (reference value: 10 +/- 3 %); format: functional
Rattus norvegicus [8] = species: Rattus norvegicus; assay: Renoprotective activity in 1% ethylene glycol-treated Rattus norvegicus Sprague-Dawley (rat) kidney assessed as decrease in oxalate excretion in urine at 0.8 mg/day after 14 days (reference value: 4.07 +/- 0.05 uM); format: functional
Rattus norvegicus [9] = assay: Downregulation of OPN expression in 1% ethylene glycol-treated Rattus norvegicus Sprague-Dawley (rat) kidney at 4 mg/day, po after 14 days by ELISA (reference value: 75 +/- 13.5 %); format: functional
Rattus norvegicus [10] = assay: Downregulation of OPN expression in 1% ethylene glycol-treated Rattus norvegicus Sprague-Dawley (rat) kidney at 3 mg/day, po after 14 days by ELISA (reference value: 75 +/- 13.5 %); format: functional
Rattus norvegicus [11] = assay: Downregulation of OPN expression in 1% ethylene glycol-treated Rattus norvegicus Sprague-Dawley (rat) kidney at 0.8 mg/day, po after 14 days by ELISA (reference value: 75 +/- 13.5 %); format: functional
Rattus norvegicus [12] = assay: Downregulation of OPN expression in 1% ethylene glycol-treated Rattus norvegicus Sprague-Dawley (rat) kidney at 2 mg/day, po after 14 days by ELISA (reference value: 75 +/- 13.5 %); format: functional
Rattus norvegicus [13] = species: Rattus norvegicus; assay: Renoprotective activity in 1% ethylene glycol-treated Rattus norvegicus Sprague-Dawley (rat) kidney assessed as decrease in oxalate excretion in urine at 4 mg/day after 14 days (reference value: 4.07 +/- 0.05 uM); format: functional

With `CC1=CC(=O)c2ccccc2C1=O` [MENADIONE] the Activity (Rattus norvegicus [1]) was 3.44 µM, the Activity (Rattus norvegicus [2]) was 1.02 µM and the Activity (Rattus norvegicus [3]) was 2.55 µM. The Activity (Rattus norvegicus [4]) was 70%, the Activity (Rattus norvegicus [5]) was 2.01 µM and the Activity (Rattus norvegicus [6]) was “Dose-dependent effect”. It also gave an Activity (Rattus norvegicus [7]) of 11%, an Activity (Rattus norvegicus [8]) of 3.04 µM and an Activity (Rattus norvegicus [9]) of 20%. For the same molecule, the Activity (Rattus norvegicus [10]) was 30%, the Activity (Rattus norvegicus [11]) was 55% and the Activity (Rattus norvegicus [12]) was 35%. For the same molecule, the Activity (Rattus norvegicus [13]) was 1.49 µM.
